Assay: Evaluated for its ability to block the adherence of JY-8 cells to immobilized ICAM-1.
In the case of O=C(/C=C/c1ccc(Sc2ccccc2/C=C/C(=O)N2CCOCC2)c(Cl)c1)N1CCOCC1 [3-{3-Chloro-4-[2-(3-morpholin-4-yl-3-oxo-propenyl)-phenylsulfanyl]-phenyl}-1-morpholin-4-yl-propenone], the IC50 is reported as 190 nM.
In the case of O=C(/C=C/c1ccc(Sc2ccc(Cl)cc2Cl)c([N+](=O)[O-])c1)NCCCN1CCCC1=O [3-[4-(2,4-Dichloro-phenylsulfanyl)-3-nitro-phenyl]-N-[3-(2-oxo-pyrrolidin-1-yl)-propyl]-acrylamide], the IC50 is reported as 140 nM.
For O=C(/C=C/c1ccc(Sc2ccccc2CN2CCN(Cc3ccc4c(c3)OCO4)CC2)c(Cl)c1)N1CCOCC1 [3-{4-[2-(4-Benzo[1,3]dioxol-5-ylmethyl-piperazin-1-ylmethyl)-phenylsulfanyl]-3-chloro-phenyl}-1-morpholin-4-yl-propenone], the IC50 was 360 nM.
Work on CCc1ccccc1Sc1ccc(/C=C/C(=O)N2CCN(C(C)=O)CC2)cc1[N+](=O)[O-] [1-(4-Acetyl-piperazin-1-yl)-3-[4-(2-ethyl-phenylsulfanyl)-3-nitro-phenyl]-propenone] yielded an IC50 of 100 nM.
For CC(=O)N1CCN(C(=O)/C=C/c2ccc(Sc3ccc(Cl)cc3Cl)c([N+](=O)[O-])c2)CC1 [1-(4-Acetyl-piperazin-1-yl)-3-[4-(2,4-dichloro-phenylsulfanyl)-3-nitro-phenyl]-propenone], the IC50 was 63 nM.
CC(=O)N1CCN(C(=O)/C=C/c2ccc(Sc3ccc(Cl)cc3Cl)c(Cl)c2)CC1 [1-(4-Acetyl-piperazin-1-yl)-3-[3-chloro-4-(2,4-dichloro-phenylsulfanyl)-phenyl]-propenone] gave an IC50 of 240 nM.
Work on O=C(/C=C/c1ccccc1Sc1ccc(Cl)cc1Cl)NCCCCCCO [3-[2-(2,4-Dichloro-phenylsulfanyl)-phenyl]-N-(6-hydroxy-hexyl)-acrylamide] yielded an IC50 of 2100 nM.
Molecule O=C(/C=C/c1ccccc1Sc1ccc(Cl)cc1Cl)N1CCOCC1 [3-[2-(2,4-Dichloro-phenylsulfanyl)-phenyl]-1-morpholin-4-yl-propenone] has an IC50 of 5300 nM.

Assay: as above
Remark: another data set of the same source
In the case of O=C(/C=C/c1ccc(Sc2ccc(Cl)cc2Cl)c(Cl)c1)NCCCN1CCCC1=O [3-[3-Chloro-4-(2,4-dichloro-phenylsulfanyl)-phenyl]-N-[3-(2-oxo-pyrrolidin-1-yl)-propyl]-acrylamide], the IC50 is reported as 700 nM.
